Test results from ChEMBL document CHEMBL1201862, “PubChem BioAssay data set” (2004).
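Following 48 hours of exposure in 96-well plates, responses at five concentrations were used to interpolate endpoints linearly. The concentration for 50% growth inhibition is given as GI50.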 Calls of active or inactive are those of the source. No stated cut-off is given here; in the data, active = GI50 up to about 1.1 µM and inactive = higher.

How the values were obtained:
Assay in all cases: growth of human tumour cells (NCI), 48 h
PC-3 = test system: PC-3
MOLT-4 = test system: MOLT-4
SK-MEL-2 = test system: SK-MEL-2
U-251 = test system: U-251
COLO 205 = test system: COLO 205
OVCAR-8 = test system: OVCAR-8
SF-268 = test system: SF-268
EKVX = test system: EKVX
MDA-N = test system: MDA-N
K562 = test system: K562
SNB-19 = test system: SNB-19
SR = test system: SR
LOX IMVI = test system: LOX IMVI
NCI-H522 = test system: NCI-H522
SK-MEL-5 = test system: SK-MEL-5
MDA-MB-231 = test system: MDA-MB-231
HCC 2998 = test system: HCC 2998
BT-549 = test system: BT-549
HT-29 = test system: HT-29
HOP-92 = test system: HOP-92

## C=C(C)C1CC(=O)C(C)=C(O)C1 (centres undefined)
PC-3
  GI50: > 100 µM (inactive)
MOLT-4
  GI50: > 100 µM (inactive)
SK-MEL-2
  GI50: > 100 µM (inactive)
U-251
  GI50: > 100 µM (inactive)
COLO 205
  GI50: > 100 µM (inactive)
OVCAR-8
  GI50: > 100 µM (inactive)
SF-268
  GI50: > 100 µM (inactive)
EKVX
  GI50: > 100 µM (inactive)
MDA-N
  GI50: > 100 µM (inactive)
K562
  GI50: > 100 µM (inactive)
SNB-19
  GI50: > 100 µM (inactive)
SR
  GI50: > 100 µM (inactive)
LOX IMVI
  GI50: > 100 µM (inactive)
NCI-H522
  GI50: > 100 µM (inactive)
SK-MEL-5
  GI50: > 100 µM (inactive)
MDA-MB-231
  GI50: > 100 µM (inactive)
HCC 2998
  GI50: > 100 µM (inactive)
BT-549
  GI50: > 100 µM (inactive)
HT-29
  GI50: > 100 µM (inactive)

## COC1=C(OC)C(=O)C(Cc2c(Cl)nc3n2CCS3)=C(C)C1=O
PC-3
  GI50: 17.7 µM (inactive)
MOLT-4
  GI50: 1.36 µM (inactive)
SK-MEL-2
  GI50: 14.6 µM (inactive)
U-251
  GI50: 17.5 µM (inactive)
COLO 205
  GI50: 17.2 µM (inactive)
OVCAR-8
  GI50: 15.3 µM (inactive)
SF-268
  GI50: 17.6 µM (inactive)
EKVX
  GI50: 12.1 µM (inactive)
MDA-N
  GI50: 13.9 µM (inactive)
K562
  GI50: 15.5 µM (inactive)
SNB-19
  GI50: 16.2 µM (inactive)
SR
  GI50: 7.59 µM (inactive)
LOX IMVI
  GI50: 6.35 µM (inactive)
NCI-H522
  GI50: 11.6 µM (inactive)
SK-MEL-5
  GI50: 11.7 µM (inactive)
MDA-MB-231
  GI50: 4.04 µM (inactive)
HCC 2998
  GI50: 16.5 µM (inactive)
BT-549
  GI50: 14.4 µM (inactive)
HT-29
  GI50: 17 µM (inactive)

## Cc1ccc(S(N)(C(=O)Nc2cccc3ccccc23)[N+](=O)[O-])cc1 (centres undefined)
PC-3
  GI50: 50.4 µM (inactive)
MOLT-4
  GI50: 29.5 µM (inactive)
SK-MEL-2
  GI50: > 100 µM (inactive)
U-251
  GI50: > 100 µM (inactive)
COLO 205
  GI50: > 100 µM (inactive)
OVCAR-8
  GI50: > 100 µM (inactive)
MDA-N
  GI50: > 100 µM (inactive)
K562
  GI50: 55 µM (inactive)
SNB-19
  GI50: 92.5 µM (inactive)
HOP-92
  GI50: > 100 µM (inactive)
SR
  GI50: 58.9 µM (inactive)
LOX IMVI
  GI50: > 100 µM (inactive)
SK-MEL-5
  GI50: 93.3 µM (inactive)
MDA-MB-231
  GI50: 36.6 µM (inactive)
HCC 2998
  GI50: > 100 µM (inactive)
BT-549
  GI50: > 100 µM (inactive)
HT-29
  GI50: > 100 µM (inactive)

## CC1CCc2c(c(CC3CC(=O)NC(=O)C3)nn2-c2ccccc2)C1 (centres undefined)
PC-3
  GI50: > 100 µM (inactive)
MOLT-4
  GI50: > 100 µM (inactive)
SK-MEL-2
  GI50: > 100 µM (inactive)
U-251
  GI50: > 100 µM (inactive)
COLO 205
  GI50: > 100 µM (inactive)
OVCAR-8
  GI50: 93.8 µM (inactive)
SF-268
  GI50: > 100 µM (inactive)
EKVX
  GI50: > 100 µM (inactive)
MDA-N
  GI50: > 100 µM (inactive)
K562
  GI50: > 100 µM (inactive)
SNB-19
  GI50: > 100 µM (inactive)
HOP-92
  GI50: > 100 µM (inactive)
SR
  GI50: > 100 µM (inactive)
LOX IMVI
  GI50: > 100 µM (inactive)
SK-MEL-5
  GI50: > 100 µM (inactive)
MDA-MB-231
  GI50: > 100 µM (inactive)
HCC 2998
  GI50: > 100 µM (inactive)
BT-549
  GI50: > 100 µM (inactive)
HT-29
  GI50: > 100 µM (inactive)

## COc1ccc2oc(=N)c(C(=O)NCc3ccccc3)cc2c1
PC-3
  GI50: 30.5 µM (inactive)
MOLT-4
  GI50: 46.3 µM (inactive)
SK-MEL-2
  GI50: 18.6 µM (inactive)
U-251
  GI50: 16.9 µM (inactive)
COLO 205
  GI50: 31.7 µM (inactive)
OVCAR-8
  GI50: 16.7 µM (inactive)
SF-268
  GI50: 18.8 µM (inactive)
EKVX
  GI50: 31.2 µM (inactive)
MDA-N
  GI50: 19.8 µM (inactive)
K562
  GI50: 41.6 µM (inactive)
SNB-19
  GI50: 27.4 µM (inactive)
SR
  GI50: 54.8 µM (inactive)
LOX IMVI
  GI50: 38.6 µM (inactive)
NCI-H522
  GI50: 19.5 µM (inactive)
SK-MEL-5
  GI50: 27.9 µM (inactive)
MDA-MB-231
  GI50: 23.3 µM (inactive)
BT-549
  GI50: 17.7 µM (inactive)
HT-29
  GI50: 34.7 µM (inactive)

## CC(NC(=O)C(Cc1ccc(OC(=O)c2ccccc2)cc1)NC(=O)OC(C)(C)C)C(=O)NCC(=O)NC(Cc1ccccc1)NC(=O)OCc1ccccc1 (centres undefined)
PC-3
  GI50: > 100 µM (inactive)
MOLT-4
  GI50: 62.7 µM (inactive)
U-251
  GI50: > 100 µM (inactive)
COLO 205
  GI50: > 100 µM (inactive)
OVCAR-8
  GI50: > 100 µM (inactive)
SF-268
  GI50: > 100 µM (inactive)
EKVX
  GI50: > 100 µM (inactive)
MDA-N
  GI50: > 100 µM (inactive)
K562
  GI50: > 100 µM (inactive)
SNB-19
  GI50: > 100 µM (inactive)
HOP-92
  GI50: > 100 µM (inactive)
SR
  GI50: 87.5 µM (inactive)
LOX IMVI
  GI50: > 100 µM (inactive)
NCI-H522
  GI50: > 100 µM (inactive)
SK-MEL-5
  GI50: 71.6 µM (inactive)
MDA-MB-231
  GI50: > 100 µM (inactive)
BT-549
  GI50: > 100 µM (inactive)
HT-29
  GI50: > 100 µM (inactive)

## Fc1cc(-c2cc(-c3ccccc3)n[nH]2)c(Cl)cc1Cl
PC-3
  GI50: > 100 µM (inactive)
MOLT-4
  GI50: 16.9 µM (inactive)
SK-MEL-2
  GI50: > 100 µM (inactive)
U-251
  GI50: 51.5 µM (inactive)
COLO 205
  GI50: > 100 µM (inactive)
OVCAR-8
  GI50: > 100 µM (inactive)
SF-268
  GI50: > 100 µM (inactive)
EKVX
  GI50: 61.7 µM (inactive)
MDA-N
  GI50: > 100 µM (inactive)
K562
  GI50: 0.492 µM (active)
SNB-19
  GI50: > 100 µM (inactive)
HOP-92
  GI50: > 100 µM (inactive)
SR
  GI50: > 100 µM (inactive)
LOX IMVI
  GI50: 99.1 µM (inactive)
NCI-H522
  GI50: > 100 µM (inactive)
SK-MEL-5
  GI50: > 100 µM (inactive)
MDA-MB-231
  GI50: 55.5 µM (inactive)
BT-549
  GI50: > 100 µM (inactive)
HT-29
  GI50: > 100 µM (inactive)

## CC(C1CCCC1=O)C1CCCC1=O (centres undefined)
PC-3
  GI50: > 100 µM (inactive)
MOLT-4
  GI50: > 100 µM (inactive)
SK-MEL-2
  GI50: > 100 µM (inactive)
U-251
  GI50: > 100 µM (inactive)
COLO 205
  GI50: > 100 µM (inactive)
OVCAR-8
  GI50: > 100 µM (inactive)
SF-268
  GI50: > 100 µM (inactive)
EKVX
  GI50: > 100 µM (inactive)
MDA-N
  GI50: > 100 µM (inactive)
K562
  GI50: > 100 µM (inactive)
SNB-19
  GI50: > 100 µM (inactive)
SR
  GI50: > 100 µM (inactive)
LOX IMVI
  GI50: > 100 µM (inactive)
NCI-H522
  GI50: > 100 µM (inactive)
SK-MEL-5
  GI50: > 100 µM (inactive)
MDA-MB-231
  GI50: > 100 µM (inactive)
HCC 2998
  GI50: > 100 µM (inactive)
BT-549
  GI50: > 100 µM (inactive)
HT-29
  GI50: > 100 µM (inactive)

## O=C1/C(=C/c2cccc(Br)c2)CCc2ccccc21
PC-3
  GI50: 14.2 µM (inactive)
MOLT-4
  GI50: 10.2 µM (inactive)
SK-MEL-2
  GI50: 12.9 µM (inactive)
U-251
  GI50: 14.6 µM (inactive)
COLO 205
  GI50: 20.8 µM (inactive)
OVCAR-8
  GI50: 16.1 µM (inactive)
SF-268
  GI50: 6.76 µM (inactive)
EKVX
  GI50: 17.6 µM (inactive)
MDA-N
  GI50: 10.8 µM (inactive)
K562
  GI50: 6.65 µM (inactive)
SNB-19
  GI50: 14.7 µM (inactive)
HOP-92
  GI50: 14.7 µM (inactive)
SR
  GI50: 4.1 µM (inactive)
LOX IMVI
  GI50: 12.8 µM (inactive)
NCI-H522
  GI50: 10.6 µM (inactive)
MDA-MB-231
  GI50: 20.4 µM (inactive)
BT-549
  GI50: 9.53 µM (inactive)
HT-29
  GI50: 10.9 µM (inactive)

## Cc1ccc(C(=O)N/N=C(\N=N\c2ccccc2C(=O)O)c2ccc(N(C)C)cc2)cc1
PC-3
  GI50: > 100 µM (inactive)
MOLT-4
  GI50: 71.4 µM (inactive)
SK-MEL-2
  GI50: > 100 µM (inactive)
U-251
  GI50: > 100 µM (inactive)
COLO 205
  GI50: 35.2 µM (inactive)
OVCAR-8
  GI50: > 100 µM (inactive)
SF-268
  GI50: > 100 µM (inactive)
EKVX
  GI50: 75.2 µM (inactive)
MDA-N
  GI50: 19 µM (inactive)
K562
  GI50: 35.8 µM (inactive)
SNB-19
  GI50: 55.3 µM (inactive)
HOP-92
  GI50: > 100 µM (inactive)
LOX IMVI
  GI50: > 100 µM (inactive)
NCI-H522
  GI50: 46.3 µM (inactive)
SK-MEL-5
  GI50: > 100 µM (inactive)
MDA-MB-231
  GI50: > 100 µM (inactive)
HCC 2998
  GI50: 71.4 µM (inactive)
BT-549
  GI50: > 100 µM (inactive)
HT-29
  GI50: > 100 µM (inactive)

## Nc1ccc2[nH]c(C(=O)N3CC(CCl)c4c3cc(N)c3ccccc43)cc2c1 (centres undefined)
PC-3
  GI50: < 0.01 µM (active)
MOLT-4
  GI50: < 0.01 µM (active)
SK-MEL-2
  GI50: < 0.01 µM (active)
U-251
  GI50: < 0.01 µM (active)
COLO 205
  GI50: 0.0101 µM (active)
OVCAR-8
  GI50: < 0.01 µM (active)
SF-268
  GI50: < 0.01 µM (active)
EKVX
  GI50: < 0.01 µM (active)
MDA-N
  GI50: < 0.01 µM (active)
K562
  GI50: < 0.01 µM (active)
SNB-19
  GI50: < 0.0138 µM (active)
HOP-92
  GI50: 0.0115 µM (active)
SR
  GI50: < 0.01 µM (active)
LOX IMVI
  GI50: < 0.01 µM (active)
SK-MEL-5
  GI50: < 0.01 µM (active)
MDA-MB-231
  GI50: < 0.0208 µM (active)
HCC 2998
  GI50: < 0.01 µM (active)
BT-549
  GI50: < 0.016 µM (active)
HT-29
  GI50: < 0.01 µM (active)
